Data published in PubChem BioAssay AID248 (DTP/NCI, 2004).
Several values for one entry are separate records, joined by “and”; a condition that tells them apart may be missing. Identical values can stand only once. Inconclusive results and toxic doses are left out. Cut-off read from the data, not from the text of the source: active = T/C of 150% or more; inactive = T/C below 125%.

Test system: L1210 leukemia ip in BDF1 mice, survival T/C
Assay: NCI In Vivo Anticancer Drug Screen. Data for tumor model L1210 Leukemia (intraperitoneal) in B6D2F1 (BDF1) mice
Settings: higher = longer survival
Summary of the method: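 Each compound was tested against a transplantable tumor grown in mice. The endpoint was survival, with treated animals benchmarked against vehicle controls as a simple ratio.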

[1] = endpoint: mean survival time, dose: 100.0 mg/kg/injection, schedule: Q01DX001 (ip), vehicle: saline
[2] = endpoint: mean survival time, dose: 200.0 mg/kg/injection, schedule: Q01DX001 (ip), vehicle: saline
[3] = endpoint: mean survival time, dose: 400.0 mg/kg/injection, schedule: Q01DX001 (ip), vehicle: saline

Measured: T/C

O=[N+]([O-])c1ccc(S(=O)(=O)CC(Cl)c2ccccc2)cc1 (stereo unspecified)
inactive: [1] 102 % of control | endpoint: mean survival time, dose: 100.0 mg/kg/injection, schedule: Q01DX009 (ip), vehicle: acetone 86 % of control | [2] 107 % of control | endpoint: mean survival time, dose: 200.0 mg/kg/injection, schedule: Q01DX009 (ip), vehicle: acetone 94 % of control | [3] 110 % of control | endpoint: mean survival time, dose: 400.0 mg/kg/injection, schedule: Q01DX009 (ip), vehicle: acetone 96 % of control

COC(=O)c1cc(NC(=O)Nc2cccc(C(F)(F)F)c2)cc(C(=O)OC)c1
inactive: endpoint: mean survival time, dose: 100.0 mg/kg/injection, schedule: Q01DX009 (ip), vehicle: saline with Tween-80 100 % of control | endpoint: mean survival time, dose: 200.0 mg/kg/injection, schedule: Q01DX009 (ip), vehicle: saline with Tween-80 92 % of control | endpoint: mean survival time, dose: 400.0 mg/kg/injection, schedule: Q01DX009 (ip), vehicle: saline with Tween-80 96 % of control

Cc1c(N)nc([C@H](CC(N)=O)NC[C@H](N)C(N)=O)nc1C(=O)N[C@H](C(=O)N[C@H](C)[C@@H](O)[C@H](C)C(=O)N[C@H](C(=O)NCCc1nc(-c2nc(C(=O)NCCC[S+](C)C)cs2)cs1)[C@@H](C)O)C(OC1OC(CO)C(O)C(O)C1OC1OC(CO)C(O)C(OC(N)=O)C1O)c1cnc[nH]1 (stereo partly specified)
inactive: endpoint: mean survival time, dose: 0.35 mg/kg/injection, schedule: Q01DX009 (ip), vehicle: saline 99 % of control and 100 % of control | endpoint: mean survival time, dose: 0.7 mg/kg/injection, schedule: Q01DX009 (ip), vehicle: saline 100 % of control | endpoint: mean survival time, dose: 1.3 mg/kg/injection, schedule: Q01DX009 (ip), vehicle: saline 99 % of control and 107 % of control | endpoint: mean survival time, dose: 2.0 mg/kg/injection, schedule: Q01DX009 (ip), vehicle: saline 101 % of control | endpoint: mean survival time, dose: 2.0 mg/kg/injection, schedule: Q04DX002 (ip), vehicle: saline 97 % of control | endpoint: mean survival time, dose: 2.5 mg/kg/injection, schedule: Q01DX009 (ip), vehicle: saline 110 % of control and 119 % of control | endpoint: mean survival time, dose: 4.0 mg/kg/injection, schedule: Q01DX009 (ip), vehicle: saline 107 % of control and 109 % of control and 112 % of control | endpoint: mean survival time, dose: 4.0 mg/kg/injection, schedule: Q04DX002 (ip), vehicle: saline 103 % of control and 105 % of control | endpoint: mean survival time, dose: 5.0 mg/kg/injection, schedule: Q01DX009 (ip), vehicle: saline 94 % of control and 107 % of control | endpoint: mean survival time, dose: 5.8 mg/kg/injection, schedule: Q01DX009 (ip), vehicle: clinical formulation 93 % of control | endpoint: mean survival time, dose: 7.81 mg/kg/injection, schedule: Q01DX009 (ip), vehicle: saline 109 % of control | endpoint: mean survival time, dose: 8.0 mg/kg/injection, schedule: Q01DX009 (ip), vehicle: saline 104 % of control and 109 % of control and 110 % of control | endpoint: mean survival time, dose: 8.0 mg/kg/injection, schedule: Q04DX002 (ip), vehicle: saline 100 % of control and 108 % of control | endpoint: mean survival time, dose: 8.7 mg/kg/injection, schedule: Q01DX009 (ip), vehicle: clinical formulation 95 % of control | endpoint: mean survival time, dose: 10.0 mg/kg/injection, schedule: Q01DX009 (ip), vehicle: saline 106 % of control and 110 % of control | endpoint: mean survival time, dose: 13.0 mg/kg/injection, schedule: Q01DX009 (ip), vehicle: clinical formulation 92 % of control | endpoint: mean survival time, dose: 15.62 mg/kg/injection, schedule: Q01DX009 (ip), vehicle: saline 104 % of control | endpoint: mean survival time, dose: 16.0 mg/kg/injection, schedule: Q01DX009 (ip), vehicle: saline 93 % of control and 108 % of control and 114 % of control | endpoint: mean survival time, dose: 16.0 mg/kg/injection, schedule: Q04DX002 (ip), vehicle: saline 97 % of control and 103 % of control | endpoint: mean survival time, dose: 20.0 mg/kg/injection, schedule: Q01DX009 (ip), vehicle: clinical formulation 93 % of control | endpoint: mean survival time, dose: 30.0 mg/kg/injection, schedule: Q01DX009 (ip), vehicle: clinical formulation 87 % of control | endpoint: mean survival time, dose: 31.0 mg/kg/injection, schedule: Q04DX002 (ip), vehicle: saline 103 % of control and 106 % of control | endpoint: mean survival time, dose: 31.25 mg/kg/injection, schedule: Q01DX001 (ip), vehicle: saline 100 % of control | endpoint: mean survival time, dose: 31.25 mg/kg/injection, schedule: Q01DX009 (ip), vehicle: saline 116 % of control | endpoint: mean survival time, dose: 32.0 mg/kg/injection, schedule: Q01DX009 (ip), vehicle: saline 113 % of control and 91 % of control and 92 % of control | endpoint: mean survival time, dose: 62.0 mg/kg/injection, schedule: Q04DX002 (ip), vehicle: saline 93 % of control and 101 % of control | endpoint: mean survival time, dose: 62.5 mg/kg/injection, schedule: Q01DX001 (ip), vehicle: saline 122 % of control | endpoint: mean survival time, dose: 62.5 mg/kg/injection, schedule: Q01DX009 (ip), vehicle: saline 107 % of control | endpoint: mean survival time, dose: 125.0 mg/kg/injection, schedule: Q01DX001 (ip), vehicle: saline 106 % of control | endpoint: mean survival time, dose: 125.0 mg/kg/injection, schedule: Q01DX009 (ip), vehicle: saline 97 % of control | endpoint: mean survival time, dose: 250.0 mg/kg/injection, schedule: Q01DX001 (ip), vehicle: saline 106 % of control | endpoint: median survival time, dose: 3.0 mg/kg/injection, schedule: Q01DX009 (ip), vehicle: saline 99 % of control | endpoint: median survival time, dose: 4.0 mg/kg/injection, schedule: Q01DX009 (ip), vehicle: saline 100 % of control and 110 % of control | endpoint: median survival time, dose: 5.0 mg/kg/injection, schedule: Q01DX009 (ip), vehicle: saline 101 % of control | endpoint: median survival time, dose: 8.0 mg/kg/injection, schedule: Q01DX009 (ip), vehicle: saline 106 % of control and 120 % of control | endpoint: median survival time, dose: 8.4 mg/kg/injection, schedule: Q01DX009 (ip), vehicle: saline 98 % of control | endpoint: median survival time, dose: 14.0 mg/kg/injection, schedule: Q01DX009 (ip), vehicle: saline 96 % of control | endpoint: median survival time, dose: 16.0 mg/kg/injection, schedule: Q01DX009 (ip), vehicle: saline 106 % of control | endpoint: median survival time, dose: 23.0 mg/kg/injection, schedule: Q01DX009 (ip), vehicle: saline 96 % of control | endpoint: median survival time, dose: 32.0 mg/kg/injection, schedule: Q01DX009 (ip), vehicle: saline 100 % of control | endpoint: median survival time, dose: 39.0 mg/kg/injection, schedule: Q01DX009 (ip), vehicle: saline 88 % of control

Oc1ccc2ccccc2c1Sc1c(O)ccc2ccccc12
inactive: endpoint: mean survival time, dose: 100.0 mg/kg/injection, schedule: Q04DX003 (ip), vehicle: saline with Tween-80 101 % of control | endpoint: mean survival time, dose: 200.0 mg/kg/injection, schedule: Q04DX003 (ip), vehicle: saline with Tween-80 101 % of control

O=c1c(Cl)c(C(Cl)(Cl)Cl)[nH]c2ccc([N+](=O)[O-])cc12
inactive: endpoint: mean survival time, dose: 25.0 mg/kg/injection, schedule: Q01DX001 (ip), vehicle: saline with Tween-80 101 % of control | endpoint: mean survival time, dose: 50.0 mg/kg/injection, schedule: Q01DX001 (ip), vehicle: saline with Tween-80 101 % of control

CCN(CC)CC
inactive: endpoint: mean survival time, dose: 100.0 mg/kg/injection, schedule: Q04DX002 (ip), vehicle: Klucel (hydroxypropylcellulose) (HPC) 98 % of control | endpoint: mean survival time, dose: 200.0 mg/kg/injection, schedule: Q04DX002 (ip), vehicle: Klucel (hydroxypropylcellulose) (HPC) 109 % of control | endpoint: mean survival time, dose: 400.0 mg/kg/injection, schedule: Q04DX002 (ip), vehicle: Klucel (hydroxypropylcellulose) (HPC) 103 % of control

c1ccc2c(c1)ccc1oc3ccc4ccccc4c3c12
inactive: endpoint: mean survival time, dose: 18.75 mg/kg/injection, schedule: Q04DX003 (ip), vehicle: Klucel (hydroxypropylcellulose) (HPC) 97 % of control | endpoint: mean survival time, dose: 37.5 mg/kg/injection, schedule: Q04DX003 (ip), vehicle: Klucel (hydroxypropylcellulose) (HPC) 97 % of control and 98 % of control | endpoint: mean survival time, dose: 75.0 mg/kg/injection, schedule: Q04DX003 (ip), vehicle: Klucel (hydroxypropylcellulose) (HPC) 101 % of control and 103 % of control | endpoint: mean survival time, dose: 100.0 mg/kg/injection, schedule: Q04DX003 (ip), vehicle: Klucel (hydroxypropylcellulose) (HPC) 103 % of control | endpoint: mean survival time, dose: 150.0 mg/kg/injection, schedule: Q04DX003 (ip), vehicle: Klucel (hydroxypropylcellulose) (HPC) 104 % of control | endpoint: mean survival time, dose: 200.0 mg/kg/injection, schedule: Q04DX003 (ip), vehicle: Klucel (hydroxypropylcellulose) (HPC) 97 % of control | endpoint: mean survival time, dose: 400.0 mg/kg/injection, schedule: Q04DX003 (ip), vehicle: Klucel (hydroxypropylcellulose) (HPC) 101 % of control

CCCCNC(C)(C)C(S)c1ccc(Cl)cc1 (stereo unspecified)
inactive: endpoint: mean survival time, dose: 12.0 mg/kg/injection, schedule: Q01DX009 (ip), vehicle: Klucel (hydroxypropylcellulose) (HPC) 104 % of control | endpoint: mean survival time, dose: 25.0 mg/kg/injection, schedule: Q01DX009 (ip), vehicle: Klucel (hydroxypropylcellulose) (HPC) 108 % of control

CSc1nc(C)c(C)c(=O)[nH]1
inactive: [1] 104 % of control | [2] 116 % of control | [3] 124 % of control

OCC1OC(n2cnc3c(NCCNc4ncnc5c4ncn5C4OC(CO)C(O)C4O)ncnc32)C(O)C1O (stereo unspecified)
inactive: endpoint: mean survival time, dose: 50.0 mg/kg/injection, schedule: Q04DX002 (ip), vehicle: saline 102 % of control | endpoint: mean survival time, dose: 100.0 mg/kg/injection, schedule: Q04DX002 (ip), vehicle: saline 110 % of control
